# From article PMC8308625, “Preclinical Studies in Anti-Trypanosomatidae Drug Development” (Pharmaceuticals, 2021)
# Where two headings read alike, the source gives them in different places.
# Tests used:
# [1] = system: T. brucei; assay: Growth inhibition of T. brucei bloodstream form trypomastigotes (resazurin); type: cell-based, Trypanosoma brucei brucei; conditions: for EC50: read-out: EC50 ± SD T. brucei
# Description: Compounds were dissolved in dimethylsulfoxide (DMSO).
# [2] = system: T. cruzi; conditions: read-out: EC50 ± SD T. cruzi, cited from earlier work
# [3] = system: fibroblasts (NCTC929); assay: Cytotoxicity in fibroblasts; type: cell-based; conditions: read-out: EC50 ± SD Fibroblasts
# From the text: Table 5 Cytotoxicity and selectivity index of reference drugs and selected molecules. | column: EC50 ± SD (µM) ^a / Fibroblasts
# [4] = system: L. braziliensis; conditions: read-out: EC50 ± SD L. brazils, cited from earlier work
# [5] = system: J774.1 murine macrophages; assay: Nonspecific cytotoxicity in murine macrophages (MTT)
# Description: (§1) Cell viability was then assessed using the 3-(4,5-dimethylthiazol-2-yl)-2,5-diphenyltetrazolium bromide (MTT) colorimetric assay [1]. […] All assays were performed in triplicate [35].
# [6] = system: L. amazonensis; assay: Growth inhibition of L. amazonensis promastigotes (resazurin); conditions: for EC50: read-out: EC50 ± SD L. amaz, Table 4, curcuminoids; for Selectivity Index MΦ/L. amaz: EC50 mammalian cell line/EC50 L. amazonensis
# [7] = system: L. infantum reference strain (MHOM/BR/2002/LPC-RPV); assay: Growth inhibition of L. infantum reference strain promastigotes (resazurin); conditions: for Selectivity Index MΦ/Reference: EC50 J774.1 macrophages versus L. infantum reference strain; for Selectivity Index MΦ/Lin–Ref: EC50 mammalian cell line/EC50 L. infantum reference strain
# [8] = system: L. infantum veterinary isolate (MCAN_UY_2015_gPL8); assay: Growth inhibition of L. infantum veterinary isolate promastigotes (resazurin); conditions: for Selectivity Index MΦ/Veterinary: EC50 J774.1 macrophages versus L. infantum veterinary isolate
# [9] = system: T. b. brucei; conditions: ref Veale and Hoppe, 2018; read-out: EC50 T. b. brucei; cited from earlier work
# [10] = Nonspecific cytotoxicity in murine macrophages (MTT); conditions: mouse, J774.1 murine macrophages
# Description: as §1
# [11] = design: method as in data provided by the DNDi program, non-published; conditions: ref data provided by the DNDi program, non-published; cited from earlier work
# [12] = Liver fraction stability (cytosolic and microsomal fraction of rat hepatocytes, TLC); type: in vitro ADME; conditions: rat hepatocyte cytosolic and microsomal fractions, 37 °C
# Description: For the determination of the stability in the different fractions, (cytosolic and microsomal of rat hepatocytes) the different proteins present in them were used. The fractions were prepared according to the previously reported protocol. […] The final concentration of the molecules in the aqueous medium was 400 µM and prepared from a stock in DMSO of 40 mM. The solutions were homogenized and incubated at 37 °C at 10 min, 30 min, 1 h, 2 h, 3 h and 4 h. (by TLC). For this, it was incubated at 37 °C in a volume of 1 mL: 2.5 µL of 30 mM Magnesium Chloride (MgCl); 2.5 µL of 40 mM Nicotinamide Adenosine Dinucleotide Phosphate (NADP+); 5 µL of 350 mM Glucose 6- Phosphate (Glu6P); 5 µL of Glucose 6- phosphate dehydrogenase (Glu6PD) 50 U/mL, 5 µL of the stock of 40 mM compounds and the volume of the Phosphate Buffer (pH = 7) must be such that cytosolic (CF) and microsomal (MF) fraction FC and FM present a final protein concentration of 0.1 mg/mL. After that, the stability of compounds 796 and 1019 in the cytosolic (FCF) and microsomal (FMF) fraction of rat hepatocytes was evaluated at different times (1–4 h). Thin-layer chromatography of ethyl acetate extracts was conducted to evaluate the presence of decomposition products. The mobile phase used for these TLCs was n-hexane: ethyl acetate (7: 3).
# [13] = mice, 796 150 mg/kg oral, Cyclophosphamide intraperitoneal positive control
# From the text: At least two slides of the cell suspension per animal were made. The air-dried slides were stained with Giemsa stain (5% in phosphate buffer, pH 7.4) and examined at 1000× magnification. Small round or oval bodies, the size of which ranged from about 1/5 to 1/20 of the diameter of a polychromatic erythrocyte (PCE), were counted as micronuclei. A total of 1000 PCEs were scored per animal by the same observer for determining the frequencies of micronucleated polychromatic erythrocytes (MNPCEs). […] For statistical analysis, the homogeneity of variances of data was tested by the analysis of variance (ANOVA) test (p < 0.05) using the EpiInfo (3.5.1) software.
# [14] = Table 3, thiazolidene hydrazines
# [15] = Table 3, thiazolidene hydrazines, ref [13],[16],[19],[23],[25]
# [16] = Table 4, curcuminoids, ref [14]
# [17] = read-out: EC50 ± SD MΦ, murine macrophages, footnote: J774.1 macrophages or differentiated THP-1 monocytes
# [18] = read-out: EC50 ± SD Lin–Ref, Table 4, curcuminoids, L. infantum reference strain
# [19] = Trypanosoma brucei, Table 3, thiazolidene hydrazines
# [20] = read-out: EC50 ± SD Lin–Ref, Table 3, thiazolidene hydrazines, L. infantum reference strain
# [21] = Leishmania infantum, read-out: EC50 L. infantum Reference
# [22] = Leishmania infantum, read-out: EC50 L. infantum Veterinary
# [23] = Mus musculus, J774.1, read-out: EC50 ± SD MΦ
# [24] = Leishmania infantum, read-out: EC50 ± SD Lin–Ref
# [25] = read-out: EC50 ± SD Lin–Vet, Table 4, curcuminoids, L. infantum veterinary isolate
structure (smiles),measurement,setting,value
C=CCn1c(-c2ccc(Cl)cc2)csc1=NN=Cc1ccsc1 [Compound 877],EC50,[1]; [14],10 ± 1 µM
same,EC50,[2]; [15],15 ± 3 µM
CC(C=CC(=O)C=CC(C)=Cc1ccco1)=Cc1ccco1 [Compound 809],trypanosomicidal effect on T. brucei,[1],no trypanosomicidal effect
same,EC50,[3],543 ± 6 µM
same,EC50,[2]; [16],8 ± 2 µM
same,EC50,[4]; [16],6 ± 1 µM
same,EC50,[5]; [17],33 ± 8 µM
same,EC50,[6],16 ± 2 µM
same,EC50,[7]; [18],3 ± 1 µM
same,growth inhibitory / trypanosomicidal effect on the L. infantum canine-derived isolate,[8],no trypanosomicidal effect
O=C1C(=CC=Cc2cccs2)CCC1=CC=Cc1cccs1 [Compound 1018],EC50,"[1]; Table 4, curcuminoids",15 ± 2 µM
same,EC50,[2]; [16],0.04 ± 0.01 µM
same,EC50,[4]; [16],11 ± 3 µM
same,EC50,[7]; [18],< 0.3 µM
C=CCn1c(-c2ccc(Cl)cc2)cs\c1=N/N=C/C(C)=C/c1ccco1 [Compound 873],EC50,[1]; [19],14 ± 3 µM
same,EC50,[2]; [15],0.09 ± 0.02 µM
Clc1ccc(-c2csc(N/N=C/C=C/c3ccco3)n2)cc1 [Compound 901],EC50,[1]; [19],5 ± 1 µM
same,EC50,[2]; [15],1.2 ± 0.3 µM
Cc1ccc(S(=O)(=O)NN=CC=Cc2ccco2)cc1 [Compound 1369],EC50,[2]; [15],15 ± 5 µM
same,EC50,[7]; [20],8 ± 2 µM
O=C(C=CC=Cc1ccco1)C=CC=Cc1ccco1 [Compound 793],EC50,"[1]; Table 4, curcuminoids",17 ± 2 µM
same,EC50,[2]; [16],5 ± 0.7 µM
same,EC50,[7]; [18],< 0.3 µM
O=C(C=Cc1ccsc1)C=Cc1ccsc1 [Compound 1387],EC50,"[1]; Table 4, curcuminoids",0.7 ± 0.1 µM
same,EC50,[2]; [16],16 ± 2 µM
"CS(=O)(=O)c1ccc(C(=O)N(C[C@H]2CCCO2)c2nc3ccccc3s2)cc1[N+](=O)[O-] [MMV688761, N-(1,3-Benzothiazol-2-yl)-4-methylsulfonyl-3-nitro-N-[[(2R)-oxolan-2-yl]methyl]benzamide]",EC50,[9],11 µM
same,EC50 at 48 h,[10],> 50 µM
same,Selectivity Index MΦ/Reference,[7],>10
same,EC50,[7]; [21],4.9 ± 0.1 µM
same,Selectivity Index MΦ/Veterinary,[8],>13
same,EC50,[8]; [22],3.9 ± 0.3 µM
O=C(NN=CC=Cc1ccco1)c1cnn(-c2ccccc2)c1 [Compound 1366],EC50,[2]; [15],12 ± 2 µM
C=CCNC(=S)NN=CC(C)=Cc1ccco1 [Compound 909],EC50,[1]; [14],19 ± 1 µM
same,EC50,[2]; [15],6 ± 1 µM
same,EC50,[7]; [20],10 µM
"COc1cc(/C=C/C(=O)CC(=O)/C=C/c2ccc(O)c(OC)c2)ccc1O [Curcumin, reference compound]",EC50,"[1]; Trypanosoma brucei, Table 4, curcuminoids",8 ± 1 µM
same,EC50,[2]; [16],6 ± 1 µM
same,EC50,[4]; [16],6 ± 1 µM
same,EC50,[5]; [23],10 ± 2 µM
same,Selectivity Index MΦ/L. amaz,[6],2
same,Selectivity Index MΦ/Lin–Ref,[7],2
same,EC50,[7]; [24],5 ± 1 µM
C=CCNC(=S)NN=CC=Cc1ccc(C)o1 [Compound 263],EC50,[2]; [15],5 ± 1 µM
same,EC50,[7]; [20],< 0.3 µM
"CNc1nnc(Sc2cnn(-c3ccccc3)c(=O)c2Cl)s1 [MMV688763, 4-Chloro-5-{[5-(methylamino)-1,3,4-thiadiazol-2-yl]sulfanyl}-2-phenyl-2,3-dihydropyridazin-3-one]",pharmacokinetics,[11],pharmacokinetic problems
same,EC50 at 48 h,[10],> 50 µM
same,Selectivity Index MΦ/Reference,[7],>24
same,EC50,[7]; [21],2.1 ± 0.2 µM
same,Selectivity Index MΦ/Veterinary,[8],>56
same,EC50,[8]; [22],0.9 ± 0.1 µM
"CC1CS(=O)(=O)CCN1/N=C/c1ccc([N+](=O)[O-])o1 (centres unmarked) [Nifurtimox, reference compound]",EC50,[2]; [15],7 ± 2 µM
same,EC50,[4]; [15],6 ± 2 µM
same,EC50,[5]; [23],200 ± 9 µM
same,Selectivity Index MΦ/L. amaz,[6],33
same,Selectivity Index MΦ/Lin–Ref,[7],33
same,EC50,[7]; [24],6 ± 1 µM
same,Selectivity Index MΦ/Lin–Vet,[8]; EC50 mammalian cell line/EC50 L. infantum veterinary isolate,20
same,EC50,"[8]; Leishmania infantum, read-out: EC50 ± SD Lin–Vet",10 ± 2 µM
O=C(C=CC=Cc1cccs1)C=CC=Cc1cccs1 [Compound 798],EC50,[2]; [16],13 ± 1 µM
same,EC50,[4]; [16],19 ± 5 µM
same,EC50,[7]; [18],3 ± 0.5 µM
O=C1C(=CC=Cc2ccccc2)CCCC1=CC=Cc1ccccc1 [Compound 800],EC50,"[1]; Table 4, curcuminoids",15 ± 1 µM
same,EC50,[2]; [16],14 µM
O=C1C(=CC=Cc2cccs2)CCCC1=CC=Cc1cccs1 [Compound 1245],EC50,"[1]; Table 4, curcuminoids",16 ± 3 µM
same,EC50,[2]; [16],0.6 ± 0.2 µM
same,EC50,[4]; [16],16 ± 1 µM
same,EC50,[7]; [18],< 0.3 µM
O=C1C(=Cc2ccccc2)CCCC1=Cc1ccccc1 [Compound 799],EC50,"[1]; Table 4, curcuminoids",1.7 ± 0.5 µM
same,metabolic stability: time compound detected / degraded,[12],< 1 h
same,EC50,[2]; [16],5 ± 1 µM
same,EC50,[4]; [16],4.2 ± 0.9 µM
same,EC50,[5]; [17],115 ± 8 µM
same,EC50,[6],5 ± 1 µM
same,EC50,[7]; [18],< 0.3 µM
same,EC50,[8]; [25],12 ± 3 µM
O=C(C=Cc1ccco1)C=Cc1ccco1 [Compound 795],EC50,"[1]; Table 4, curcuminoids",1.8 ± 0.5 µM
same,EC50,[3],114 ± 6 µM
same,metabolic stability: time compound detected / degraded,[12],< 1 h
same,EC50,[2]; [16],24 ± 2 µM
same,EC50,[4]; [16],6 ± 2 µM
same,EC50,[5]; [17],115 ± 2 µM
same,EC50,[6],10 ± 6 µM
same,EC50,[7]; [18],5 ± 1 µM
same,EC50,[8]; [25],10 ± 2 µM
O=C(C=CC=Cc1ccccc1)C=CC=Cc1ccccc1 [Compound 797],EC50,[2]; [16],11 ± 2 µM
O=C(C=CC=Cc1ccco1)C=CC=Cc1cccs1 [Compound 1414],EC50,"[1]; Table 4, curcuminoids",16 µM
same,EC50,[2]; [16],12 ± 1 µM
"O=P1(N(CCCl)CCCl)NCCCO1 (centres unmarked) [Cyclophosphamide, reference compound]",Media Mn/Mouse ± SD,[13],36 ± 2
same,Number EPMn (total polychromatic micronucleated erythrocytes in the 5 assays),[13]; 5000 EPC observed,180
O=C1C(=CC=Cc2ccco2)CCC1=CC=Cc1ccco1 [Compound 1223],trypanosomicidal effect on T. brucei,[1],no trypanosomicidal effect
same,EC50,[2]; [16],5 ± 2 µM
same,EC50,[4]; [16],16 ± 4 µM
same,EC50,[6],18 ± 4 µM
same,EC50,[7]; [18],< 0.3 µM
same,growth inhibitory / trypanosomicidal effect on the L. infantum canine-derived isolate,[8],no trypanosomicidal effect
